Data from ChEMBL document CHEMBL5120808, “6-Aryl-quinazolines as novel GABAB receptor positive allosteric modulators” (Bioorg Med Chem Lett, 2022).
Calls of active or inactive are those of the source. The rule behind the calls is not given here.

Assays:
[1] = Metabolic stability in rat assessed as parent compound remaining; assay type: ADME
[2] = Metabolic stability in mouse assessed as parent compound remaining; assay type: ADME
[3] = Metabolic stability in human assessed as parent compound remaining; assay type: ADME
GABA-B receptor = GABA-B receptor (Homo sapiens, UniProt O75899+Q9UBS5); assay: Positive allosteric modulation of GABA-B receptor (unknown origin) assessed as stimulation of [35S]GTPgammaS binding by [35S]GTPgammaS binding assay; assay type: functional
Sequence of GABA-B receptor (Q9UBS5 whole entry): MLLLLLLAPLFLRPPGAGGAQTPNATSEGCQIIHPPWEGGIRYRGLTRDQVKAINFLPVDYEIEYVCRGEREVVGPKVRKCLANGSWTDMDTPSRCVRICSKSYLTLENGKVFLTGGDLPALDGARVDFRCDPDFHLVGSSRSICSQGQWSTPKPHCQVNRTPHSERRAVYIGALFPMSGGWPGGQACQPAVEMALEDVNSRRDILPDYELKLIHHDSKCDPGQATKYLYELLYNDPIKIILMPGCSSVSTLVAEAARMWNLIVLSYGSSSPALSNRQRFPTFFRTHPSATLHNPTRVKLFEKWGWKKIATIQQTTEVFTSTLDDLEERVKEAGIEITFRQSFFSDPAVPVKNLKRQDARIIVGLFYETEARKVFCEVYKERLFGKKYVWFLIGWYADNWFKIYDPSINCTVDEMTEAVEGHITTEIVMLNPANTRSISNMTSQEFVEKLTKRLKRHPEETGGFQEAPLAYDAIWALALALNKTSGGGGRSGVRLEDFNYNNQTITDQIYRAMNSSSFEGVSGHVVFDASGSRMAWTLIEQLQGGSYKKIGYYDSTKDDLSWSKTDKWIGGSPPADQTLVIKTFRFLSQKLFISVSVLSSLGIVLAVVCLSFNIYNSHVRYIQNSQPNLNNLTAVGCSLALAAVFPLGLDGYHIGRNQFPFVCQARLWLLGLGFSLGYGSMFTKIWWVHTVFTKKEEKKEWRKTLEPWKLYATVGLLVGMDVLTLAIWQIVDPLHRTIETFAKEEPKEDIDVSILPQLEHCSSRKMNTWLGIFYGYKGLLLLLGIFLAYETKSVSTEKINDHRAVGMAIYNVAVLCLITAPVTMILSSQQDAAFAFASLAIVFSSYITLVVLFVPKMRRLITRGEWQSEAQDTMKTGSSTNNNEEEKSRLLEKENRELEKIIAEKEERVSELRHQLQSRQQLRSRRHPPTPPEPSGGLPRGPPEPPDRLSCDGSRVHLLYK
Sequence of GABA-B receptor (O75899 whole entry): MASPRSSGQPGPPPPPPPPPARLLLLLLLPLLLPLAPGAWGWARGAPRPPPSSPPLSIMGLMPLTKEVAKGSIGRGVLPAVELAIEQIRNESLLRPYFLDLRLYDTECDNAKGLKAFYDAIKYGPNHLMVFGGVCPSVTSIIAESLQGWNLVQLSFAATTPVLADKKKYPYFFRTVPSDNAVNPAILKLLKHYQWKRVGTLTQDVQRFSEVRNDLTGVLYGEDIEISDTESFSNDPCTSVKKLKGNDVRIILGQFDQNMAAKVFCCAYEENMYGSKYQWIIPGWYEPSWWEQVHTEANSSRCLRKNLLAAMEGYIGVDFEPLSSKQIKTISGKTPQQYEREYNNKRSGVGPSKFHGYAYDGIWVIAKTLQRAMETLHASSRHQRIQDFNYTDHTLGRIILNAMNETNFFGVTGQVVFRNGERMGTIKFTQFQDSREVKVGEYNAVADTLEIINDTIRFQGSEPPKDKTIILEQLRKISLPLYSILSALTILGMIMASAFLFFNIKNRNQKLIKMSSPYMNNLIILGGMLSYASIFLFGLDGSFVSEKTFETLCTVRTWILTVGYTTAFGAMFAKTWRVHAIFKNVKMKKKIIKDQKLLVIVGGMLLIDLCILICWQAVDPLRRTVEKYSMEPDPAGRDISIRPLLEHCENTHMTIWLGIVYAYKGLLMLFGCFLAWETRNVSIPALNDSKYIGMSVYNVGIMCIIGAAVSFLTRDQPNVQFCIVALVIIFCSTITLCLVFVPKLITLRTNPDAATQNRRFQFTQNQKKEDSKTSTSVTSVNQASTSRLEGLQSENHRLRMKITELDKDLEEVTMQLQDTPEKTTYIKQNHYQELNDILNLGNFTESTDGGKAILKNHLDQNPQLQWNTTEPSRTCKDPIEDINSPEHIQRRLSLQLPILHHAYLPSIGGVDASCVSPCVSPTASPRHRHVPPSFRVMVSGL

Mus musculus [4] = assay: Potentiation of baclofen induced skeletal muscle relaxation in po dosed NMRI mouse assessed as effective dose by Litchfield-Wilcoxon method; assay type: functional
[5] = Tmax in NMRI mouse plasma at 10 mg/kg, po measured up to 24 hrs; assay type: ADME, organism-based
Mus musculus [6] = assay: Potentiation of baclofen induced loss of righting reflex in po dosed NMRI mouse assessed as effective dose by Litchfield-Wilcoxon method; assay type: functional
[7] = Cmax in NMRI mouse brain at 10 mg/kg, po measured up to 24 hrs; assay type: ADME, organism-based; parameters: time < 24 hrs, dose 10 mg/kg, route po
[8] = AUC (0 to 24 hrs) in NMRI mouse plasma at 10 mg/kg, po measured up to 24 hrs; assay type: ADME, organism-based; parameters: time < 24 hrs, dose 10 mg/kg, route po
[9] = Tmax in NMRI mouse brain at 10 mg/kg, po measured up to 24 hrs; assay type: ADME, organism-based
[10] = Cmax in NMRI mouse plasma at 10 mg/kg, po measured up to 24 hrs; assay type: ADME, organism-based; parameters: dose 10 mg/kg, time < 24 hrs, route po
Mus musculus [11] = assay: Potentiation of baclofen induced skeletal muscle relaxation in NMRI mouse at 3 to 30 mg/kg, po by traction test; assay type: functional, organism-based; conditions: dose 3-30 mg/kg
[12] = AUC (0 to 24 hrs) in NMRI mouse brain at 10 mg/kg, po measured up to 24 hrs; assay type: ADME, organism-based; parameters: time < 24 hrs, dose 10 mg/kg, route po
[13] = Half life in NMRI mouse brain at 10 mg/kg, po measured up to 24 hrs; assay type: ADME, organism-based

With Cc1nc(N[C@@H]2C[C@H]3CC[C@@H]2C3)c2cc(-c3cc(Cl)cc(Cl)c3)ccc2n1 as the compound, how does the Stability [1] read?
The Stability was 37%.

And the Stability [2]?
The Stability was 44%.

And the Stability [3]?
Its Stability is 62%.

And the EC50 (GABA-B receptor)?
The EC50 was 97 nM.

With Clc1ccc(-c2ccc3nc(Cl)nc(N[C@@H]4C[C@H]5CC[C@@H]4C5)c3c2)cc1 as the compound, how does the ED50 (Mus musculus [4]) read?
The ED50 was 25.6 mg/kg.

What about the Stability [1] of the same compound?
Its Stability is 85%.

What about the Stability [2] of the same compound?
The Stability was 40%.

And the Stability [3]?
The Stability was 46%.

What about the EC50 (GABA-B receptor) of the same compound?
Its EC50 is 208 nM.

For Cc1nc(N[C@@H]2C[C@H]3CC[C@@H]2C3)c2cc(-c3cccc(C(F)(F)F)c3)ccc2n1, which Stability [1] is on record?
The Stability was 41%.

What about the Stability [2] of the same compound?
Its Stability is 41%.

What about the Stability [3] of the same compound?
The Stability was 75%.

And the EC50 (GABA-B receptor)?
The EC50 was 142 nM.

For FC(F)(F)c1ccc(-c2ccc3nc(Cl)nc(N[C@@H]4C[C@H]5CC[C@@H]4C5)c3c2)cc1, which Tmax [5] is on record?
Its Tmax is 1 h.

What about the ED50 (Mus musculus [6]) of the same compound?
Its ED50 is 2.9 mg/kg.

What about the ED50 (Mus musculus [4]) of the same compound?
Its ED50 is 8.1 mg/kg.

What about the Cmax [7] of the same compound?
Its Cmax is 100 ng/mL.

What about the AUC(0-t) at 24 h [8] of the same compound?
Its AUC(0-t) at 24 h is 4660 ng·h/mL.

What about the Stability [1] of the same compound?
The Stability was 84%.

What about the Tmax [9] of the same compound?
The Tmax was 2 h.

And the Stability [2]?
Its Stability is 95%.

What about the Stability [3] of the same compound?
The Stability was 73%.

What about the Cmax [10] of the same compound?
Its Cmax is 586 ng/mL.

And the Activity (Mus musculus [11])?
The Activity was “Active”.

What about the AUC(0-t) at 24 h [12] of the same compound?
Its AUC(0-t) at 24 h is 852 ng·h/mL.

And the half-life [13]?
The half-life was 8.94 h.

And the EC50 (GABA-B receptor)?
Its EC50 is 637 nM.

Which Stability [1] does the source give for Fc1ccc(-c2ccc3nc(Cl)nc(N[C@@H]4C[C@H]5CC[C@@H]4C5)c3c2)cc1 here?
Its Stability is 36%.

And the Stability [2]?
The Stability was 53%.

And the Stability [3]?
Its Stability is 47%.

What about the EC50 (GABA-B receptor) of the same compound?
The EC50 was 294 nM.

With Cc1nc(N[C@@H]2C[C@H]3CC[C@@H]2C3)c2cc(-c3ccc(Cl)cc3)ccc2n1 as the compound, how does the ED50 (Mus musculus [4]) read?
Its ED50 is 12.7 mg/kg.

And the Stability [1]?
The Stability was 49%.

And the Stability [2]?
Its Stability is 39%.

What about the Stability [3] of the same compound?
Its Stability is 47%.

And the EC50 (GABA-B receptor)?
Its EC50 is 444 nM.

With Clc1nc(N[C@@H]2C[C@H]3CC[C@@H]2C3)c2cc(-c3ccc(Cl)c(Cl)c3)ccc2n1 as the compound, how does the Stability [1] read?
The Stability was 59%.

And the Stability [2]?
Its Stability is 67%.

What about the Stability [3] of the same compound?
The Stability was 69%.

What about the EC50 (GABA-B receptor) of the same compound?
The EC50 was 341 nM.

For Cc1nc(N[C@@H]2C[C@H]3CC[C@@H]2C3)c2cc(-c3cccc(Cl)c3)ccc2n1, which Stability [1] is on record?
The Stability was 23%.

What about the Stability [2] of the same compound?
The Stability was 27%.

What about the Stability [3] of the same compound?
The Stability was 50%.

What about the EC50 (GABA-B receptor) of the same compound?
The EC50 was 199 nM.

For FC(F)(F)c1cccc(-c2ccc3nc(Cl)nc(N[C@@H]4C[C@H]5CC[C@@H]4C5)c3c2)c1, which Stability [1] is on record?
The Stability was 67%.

And the Stability [2]?
Its Stability is 63%.

What about the Stability [3] of the same compound?
Its Stability is 58%.

What about the EC50 (GABA-B receptor) of the same compound?
The EC50 was 90 nM.

What does the source list for Cc1nc(N[C@@H]2C[C@H]3CC[C@@H]2C3)c2cc(-c3ccc(C(F)(F)F)cc3)ccc2n1?
Stability [1]: 77%; Stability [2]: 66%; Stability [3]: 66%; EC50 (GABA-B receptor): 771 nM

With Cc1ncc(-c2ccc(C(F)(F)F)cc2)c(N[C@@H]2C[C@H]3CC[C@@H]2C3)n1 as the compound, how does the Stability [1] read?
The Stability was 24%.

And the Stability [2]?
The Stability was 42%.

What about the Stability [3] of the same compound?
The Stability was 65%.

For Cc1nc(N[C@@H]2C[C@H]3CC[C@@H]2C3)c2cc(-c3ccccc3Cl)ccc2n1, which Stability [1] is on record?
The Stability was 31%.

What about the Stability [2] of the same compound?
Its Stability is 23%.

And the Stability [3]?
Its Stability is 57%.

And the EC50 (GABA-B receptor)?
The EC50 was 496 nM.

For Cc1nc(N[C@@H]2C[C@H]3CC[C@@H]2C3)c2cc(-c3ccc(Cl)c(Cl)c3)ccc2n1, which Stability [1] is on record?
Its Stability is 63%.

What about the Stability [2] of the same compound?
Its Stability is 74%.

What about the Stability [3] of the same compound?
The Stability was 56%.

And the EC50 (GABA-B receptor)?
The EC50 was 419 nM.

Which results are given for Clc1cc(Cl)cc(-c2ccc3nc(Cl)nc(N[C@@H]4C[C@H]5CC[C@@H]4C5)c3c2)c1?
Stability [1]: 76%; Stability [2]: 62%; Stability [3]: 85%
